Results taken from patent publication US10829496B2, “Thienopyridines and benzothiophenes useful as IRAK4 inhibitors” (BRISTOL-MYERS SQUIBB COMPANY, priority 2017, dated 2020).

Columns and labels:
[1] = target: IRAK4 (Homo sapiens (Human), UniProt Q9NWZ3); assay: IRAK4 Inhibition Assay; assay type: biochemical; conditions: ATP 500 μM; IRAK4 0.6 nM; 60 min at room temperature
Experimental: The assays were performed in U-bottom 384-well plates. The final assay volume was 30 μL prepared from 15 μL additions of enzyme and substrates (fluoresceinated peptide and ATP) and test compounds in assay buffer (20 mM HEPES pH 7.2, 10 mM MgCl2, 0.015% Brij 35 and 4 mM DTT). The reaction was initiated by the combination of IRAK4 with substrates and test compounds. The reaction mixture was incubated at room temperature for 60 min. and terminated by adding 45 μL of 35 mM EDTA to each sample. The reaction mixture was analyzed on the Caliper LABCHIP® 3000 (Caliper, Hopkinton, Mass.) by electrophoretic separation of the fluorescent substrate and phosphorylated product. Inhibition data were calculated by comparison to no enzyme control reactions for 100% inhibition and vehicle-only reactions for 0% inhibition. The final concentrations of reagents in the assays are ATP, 500 μM; FL-IPTSPITTTYFFFKKK peptide 1.5 μM; IRAK4, 0.6 nM; and DMSO, 1.6%.

[2] = Caco-2 Permeability Assay; assay type: in vitro ADME; conditions: human, 3 μM compound, 2 hours at 37° C., direction not given
Experimental: Caco-2 Permeability Assay
Thirteen to 27 days prior to assay, Caco-2 cells were seeded onto collagen-coated polycarbonate filter membranes in 24-well transwell plates at a density of 1.45×10^5 cells/cm^2, approximately 4.8×10^4 cells per well. The cells were grown in a culture medium consisting of DMEM supplemented with 10% fetal bovine serum, 10 mM HEPES, 1% nonessential amino acids, 2 mM L-glutamine, 100 U/mL penicillin-G, and 100 μg/mL streptomycin. The culture medium was replaced every 3 days and the cells were maintained at 37° C. in a 95% relative humidity and 5% CO2 atmosphere. The cells were evaluated for tight junction formation just prior to assay. The test compound was solubilized to 10 mM in 100% DMSO and diluted to 3 μM in assay buffer. Permeability studies were initiated by adding 200 μL assay buffer plus/minus compound to the apical transwell compartment and 600 μL assay buffer plus/minus compound to the basolateral compartment of the 24-well transwell low-binding cluster plate. For apical-to-basolateral (A to B) permeability (absorptive direction), buffer containing compound was placed in the apical compartment (donorwells), while buffer alone was placed in the corresponding basolateral compartments (receiverwells). For basolateral-to-apical (B to A) permeability (secretive direction), buffer containing compound was placed in the basolateral compartment (donor wells), while buffer alone was placed in the corresponding apical compartments (receiver wells). Transwells were then incubated for 2 hours at 37° C. in a 95% relative humidity and 5% CO2 atmosphere with gentle agitation. Following incubation, 100 μL was removed from each apical and basolateral compartment and transferred to 96-well low binding plates that had been previously loaded with 100 μL/well of acetonitrile containing 250 nM propranolol, 250 nM diclofenac, and 500 nM tolbutamide as internal standards. The samples were subsequently analyzed by LC-MS/MS to determine concentrations of compound.

[3] = test system: IL-6 levels in human whole blood stimulated with a TLR2 agonist; assay: IRAK4 Whole Blood Assay (TLR2 agonist lipoteichoic acid-stimulated IL-6); assay type: cell-based; conditions: 10 μg/mL lipoteichoic acid, 5 hours, IL-6 readout
Experimental: Human whole blood containing the anti-coagulant ACD-A was plated in 384-well plate (25 μL/well) and incubated with compounds for 60 minutes at 37° C. in a 5% CO2 incubator. The blood was stimulated with a TLR2 agonist, 10 μg/mL final concentration of lipoteichoic acid (Invivogen, San Diego, Calif.) in 25 μL RPMI (Gibco) for 5 hours in a 5% CO2 incubator. At the end of the incubation, plates were centrifuged at 2300 rpm for 5 minutes. Supernatants were harvested and analyzed for IL-6 levels by Flow Cytometry beads assay (BD Biosciences, San Jose, Calif.).

Chain of IRAK4 (Q9NWZ3 whole entry): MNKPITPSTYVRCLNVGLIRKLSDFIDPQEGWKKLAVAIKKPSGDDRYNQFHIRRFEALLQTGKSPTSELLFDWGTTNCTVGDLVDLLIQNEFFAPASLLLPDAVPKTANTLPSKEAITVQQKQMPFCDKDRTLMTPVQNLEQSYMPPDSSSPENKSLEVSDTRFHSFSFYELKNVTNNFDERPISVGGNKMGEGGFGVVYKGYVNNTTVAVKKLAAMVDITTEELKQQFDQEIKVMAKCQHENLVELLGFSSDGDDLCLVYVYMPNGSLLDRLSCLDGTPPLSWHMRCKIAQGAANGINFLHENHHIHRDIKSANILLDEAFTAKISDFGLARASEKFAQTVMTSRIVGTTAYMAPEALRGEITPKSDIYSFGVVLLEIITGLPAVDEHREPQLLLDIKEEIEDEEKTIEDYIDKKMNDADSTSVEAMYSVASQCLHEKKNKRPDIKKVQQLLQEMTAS

IC50 [1] [µM]	Papp at 2 h, 3 µM [2] [nm/s]	EC50 [3] [µM]	Compound
0.615	–	–	COc1nc2c(OCC3COCC(=O)N3)csc2cc1C(N)=O (racemic) [Example 7, 5-methoxy-3-((5-oxomorpholin-3-yl)methoxy)thieno[3,2-b]pyridine-6-carboxamide]
0.0362	–	–	COc1nc2c(OC[C@@H]3CC(C)C(=O)N3)csc2cc1C(N)=O (single isomer, unassigned) [Example 13]
0.459	–	–	COc1nc2c(OC[C@@H]3CC(C)C(=O)N3)csc2cc1C(N)=O (single isomer, unassigned) [Example 14]
0.0634	–	–	CCC1C[C@@H](COc2csc3cc(C(N)=O)c(OC)nc23)NC1=O (single isomer, unassigned) [Example 15]
0.0981	–	–	CCC1C[C@@H](COc2csc3cc(C(N)=O)c(OC)nc23)NC1=O (single isomer, unassigned) [Example 16]
0.0006	102	0.058	CC[C@H]1[C@@H](COc2csc3cc(C(N)=O)c(OC)nc23)NC(=O)C1(F)F [Example 1, 3-(((2S,3S)-3-Ethyl-4,4-difluoro-5-oxopyrrolidin-2-yl)methoxy)-5-methoxythieno[3,2-b]pyridine-6-carboxamide]
0.0012	73	0.205	CC[C@@H]1[C@H](F)C(=O)N[C@@H]1COc1csc2cc(C(N)=O)c(OC)nc12 [Example 2, 3-(((2S,3S,4S)-3-Ethyl-4-fluoro-5-oxopyrrolidin-2-yl)methoxy)-5-methoxythieno[3,2-b]pyridine-6-carboxamide]
0.558	–	–	COc1cc2c(OC[C@@H]3CCC(=O)N3)csc2nc1C(N)=O [Example 3, (S)-5-Methoxy-3-((5-oxopyrrolidin-2-yl)methoxy)thieno[2,3-b]pyridine-6-carboxamide]
0.0004	85	0.153	CC[C@@H]1[C@H](F)C(=O)N[C@@H]1COc1csc2cc(C(N)=O)c(OC)cc12 [Example 4, 3-(((2S,3S,4S)-3-ethyl-4-fluoro-5-oxopyrrolidin-2-yl)methoxy)-5-methoxybenzo[b]thiophene-6-carboxamide]
0.0203	–	2.01	COc1nc2c(OC[C@@H]3CCC(=O)N3)csc2cc1C(N)=O [Example 5, (S)-5-methoxy-3-((5-oxopyrrolidin-2-yl)methoxy)thieno[3,2-b]pyridine-6-carboxamide]
0.001	81	3.21	CC[C@@H]1CC(=O)N[C@@H]1COc1csc2cc(C(N)=O)c(OC)nc12 [Example 6, 3-(((2S,3R)-3-ethyl-5-oxopyrrolidin-2-yl)methoxy)-5-methoxythieno[3,2-b]pyridine-6-carboxamide]
0.0007	42	0.092	CC[C@H]1[C@@H](COc2csc3cc(C(N)=O)c(OC)nc23)NC(=O)[C@@H]1F [Example 8, 3-(((2S,3S,4R)-3-ethyl-4-fluoro-5-oxopyrrolidin-2-yl)methoxy)-5-methoxythieno[3,2-b]pyridine-6-carboxamide]
0.004	–	0.473	COc1nc2c(OC[C@@H]3C[C@@H](F)C(=O)N3)csc2cc1C(N)=O [Example 11, 3-(((2S,4R)-4-fluoro-5-oxopyrrolidin-2-yl)methoxy)-5-methoxythieno[3,2-b]pyridine-6-carboxamide]
0.0025	–	0.261	COc1nc2c(OC[C@H]3NC(=O)C[C@H]3C(F)F)csc2cc1C(N)=O [Example 12, 3-(((2S,3R)-3-(difluoromethyl)-5-oxopyrrolidin-2-yl)methoxy)-5-methoxythieno[3,2-b]pyridine-6-carboxamide]
0.006	–	0.893	COc1nc2c(OC[C@H]3NC(=O)C[C@H]3C)csc2cc1C(N)=O [Example 17, 5-methoxy-3-(((2S,3R)-3-methyl-5-oxopyrrolidin-2-yl)methoxy)thieno[3,2-b]pyridine-6-carboxamide]
0.0028	–	0.962	COc1nc2c(OC[C@H]3NC(=O)[C@H](F)[C@H]3C3CC3)csc2cc1C(N)=O [Example 18, 3-(((2S,3S,4R)-3-cyclopropyl-4-fluoro-5-oxopyrrolidin-2-yl)methoxy)-5-methoxythieno[3,2-b]pyridine-6-carboxamide]
0.0106	225	3.3	CC[C@@H]1CC(=O)N[C@@H]1COc1c(C)sc2cc(C(N)=O)c(OC)nc12 [Example 19, 3-(((2S,3R)-3-ethyl-5-oxopyrrolidin-2-yl)methoxy)-5-methoxy-2-methylthieno[3,2-b]pyridine-6-carboxamide]
0.0191	–	0.473	CC[C@@H]1CC(=O)N[C@@H]1COc1csc2cc(C(N)=O)c(OC3CC3)nc12 [Example 20, 5-cyclopropoxy-3-(((2S,3R)-3-ethyl-5-oxopyrrolidin-2-yl)methoxy)thieno[3,2-b]pyridine-6-carboxamide]
0.0013	136	0.127	COc1nc2c(OC[C@H]3NC(=O)C(F)(F)[C@H]3C)csc2cc1C(N)=O [Example 21, 3-(((2S,3S)-4,4-difluoro-3-methyl-5-oxopyrrolidin-2-yl)methoxy)-5-methoxythieno[3,2-b]pyridine-6-carboxamide]
0.0336	–	–	CC[C@@H]1[C@H](F)C(=O)N[C@@H]1COc1c(C)sc2cc(C(N)=O)c(OC)nc12 [Example 22, 3-(((2S,3S,4S)-3-ethyl-4-fluoro-5-oxopyrrolidin-2-yl)methoxy)-5-methoxy-2-methylthieno[3,2-b]pyridine-6-carboxamide]
0.0014	184	0.189	CC[C@@H]1[C@H](F)C(=O)N[C@@H]1COc1csc2cc(C(N)=O)c(OC(C)C)nc12 [Example 23, 3-(((2S,3S,4S)-3-ethyl-4-fluoro-5-oxopyrrolidin-2-yl)methoxy)-5-isopropoxythieno[3,2-b]pyridine-6-carboxamide]
0.0202	–	> 10	CC[C@@H]1[C@H](F)C(=O)N[C@@H]1COc1csc2cc(C(N)=O)c(OC3CC3)nc12 [Example 24, 5-cyclopropoxy-3-(((2S,3S,4S)-3-ethyl-4-fluoro-5-oxopyrrolidin-2-yl)methoxy)thieno[3,2-b]pyridine-6-carboxamide]
0.128	–	–	COc1nc2c(OC[C@@H]3CCC(=O)N3)c(C)sc2cc1C(N)=O [Example 25, (S)-5-methoxy-2-methyl-3-((5-oxopyrrolidin-2-yl)methoxy)thieno[3,2-b]pyridine-6-carboxamide]
0.0068	35	–	CC[C@@H]1OC(=O)N[C@@H]1COc1csc2cc(C(N)=O)c(OC)nc12 [Example 26, 3-(((4R,5S)-5-ethyl-2-oxooxazolidin-4-yl)methoxy)-5-methoxythieno[3,2-b]pyridine-6-carboxamide]
0.0011	59	0.058	COc1nc2c(OC[C@H]3NC(=O)[C@H](F)[C@H]3C)csc2cc1C(N)=O [Example 27, 3-(((2S,3S,4R)-4-fluoro-3-methyl-5-oxopyrrolidin-2-yl)methoxy)-5-methoxythieno[3,2-b]pyridine-6-carboxamide]
0.0009	–	0.363	CC[C@@H]1CC(=O)N[C@@H]1COc1csc2cc(C(N)=O)c(OC)cc12 [Example 29]

Compound	IC50 [1] [µM]	Papp at 2 h, 3 µM [2] [nm/s]	EC50 [3] [µM]
3-(46S,7R)-7-ethyl-4-oxo-5-azaspiro[2.4]heptan-6-yl)methoxy)-5-methoxythieno[3,2-b]pyridine-6-carboxamide [Example 9]	0.13	–	–
